Data: patent US7091185B2, “Periodic antimicrobial peptides” (Dow Global Technologies Inc., priority 2003, dated 2006)
Where two headings read alike, the source gives them in different places. Where no end group is shown, it is not given here.

How the values were obtained:
Cr. Neoformans 32045 = assay type: cell-based
Protocol: (§1) The MIC and IC50 values were determined by a broth microdilution method according to guidelines of the National Committee for Clinical Laboratory Standard as follows: In 96-well tissue culture plates, a fixed volume of bacterial suspension in 2× broth (as defined below) was added to the mixtures or individual compounds dispensed at concentrations varying from 1,000 to 1 μg/ml derived from serial two-fold dilutions in sterile water. The bacteria tested were P. aeruginosa American Type Culture Collection Number (ATCC) 10145, E. coli ATCC 2592, and S. aureus (methicillin reseistant) ATTC 33591.
(§2) The plates were incubated overnight, and the relative percent growth determined by optical density at 620 nm (OD620) using a TITERTEK MULTISKAN PLUS™. […] IC50 values were calculated using a sigmoidal curve fitting software program (GRAPHPAD,™ ISI Software,™ San Diego, Calif.). All samples were tested in duplicate and each assay was repeated at least twice. In the following table, KFAK is the repeat unit and multimers of KFAK were tested. IC50 and MIC are reported in μg/ml.
(§3) Because the antibacterial activity of the periodic peptides was so promising, further experiments were performed to determine if the periodic peptides also had antifungal activity. The experimental design was similar to that above, with accommodation made for fungal growth requirements, including the use of Sabouraud Dextrose Broth (SDB) and Sabouraud Dextrose Agar (SDA) slants.

C. albicans 10231 = assay type: cell-based; conditions: 10231
Protocol: as §1, §2, §3

P. aeruginosa ATCC 10145 = conditions: ATCC 10145
Protocol: (§4) The bacteria tested were P. aeruginosa American Type Culture Collection Number (ATCC) 10145, E. coli ATCC 2592, and S. aureus (methicillin reseistant) ATTC 33591.
(§5) All experiments were compared to bacterial growth under optimal growth conditions (37° C., pH 7.0, absence of additional salt, growth media—referred to as standard growth conditions). In each plate, no growth control (media alone), positive growth control (bacteria with no test sample), positive antimicrobial controls (agents with known antimicrobial activity) and test compounds were tested.
(§6) The plates were incubated overnight, and the relative percent growth determined by optical density at 620 nm (OD620) using a […] […] PLUS™. […] All samples were tested in duplicate and each assay was repeated at least twice. […] IC50 and MIC are reported in μg/ml.

[1] = test system: S. aureus (methicillin resistant) ATCC 33591
Protocol: as §4, §5, §6

E. coli ATCC 2592 = conditions: ATCC 2592
Protocol: as §4, §5, §6

Red blood cell toxicity = assay type: cell-based; conditions: red blood cells (RBC)
Red blood cells (RBC) = assay: Red blood cell toxicity; assay type: cell-based
HeLa cell line = assay: HeLa MTS cellular reduction toxicity assay; assay type: cell-based; conditions: for TX50: 24 h, MTS
Protocol: The RBC protocol was from Blondelle (2000) and is described generally as follows: The toxicity toward the HeLa cell line was determined using a MTS (3-(4-5-dimethylthiazol-2-yl)-5-(3carboxymethoxyphenyl)-2-(4-sulfophenyl)-2H-tetrazolium, sodium salt) cellular reduction assay. MTS (2 mg/mL) was prepared in Dulbecco PBS (pH 7.35), filtered, aliquoted and stored at minus 20° C. In 96 well flat bottomed plates, cell suspensions (250 μL of 6×10^4 cell/mL in each well) were incubated for 48 h at 37° C. (5% CO2 incubator). The peptides (50 μL) were then added to the cell monolayer (following aspiration of the media from each well and addition of 50 μL of Dulbecco's Modified Eagles Medium) at varying concentrations derived from serial 2-fold dilutions, and the plates incubated for 24 h at 37° C. (5% CO2 incubator). Proliferation was then determined by adding a solution of phenazine methosulfate (PMS: 0.92 mg/mL in DPBS) to MTS at a 1:20 ration just prior to the assay. Twenty microliters MTS-PMS solution were added to each well and the plates incubated for 1 h at 37° C. (5% CO2 incubator). The relative percent toxicity was determined by comparing the absorbance at 490 nm of each peptide to the absorbance of cells without peptide. The TX50 (concentration required for 50% toxicity) was calculated using a sigmoidal curve fitting software (Graphpad Prism).

[2] = S. aureus (methicillin resistant) 33591, gram+
[3] = RBCs, concentration required for 50% toxicity, read-out: TX50

Substance: H-KFAKKFAKKFAKKFAKKFAKKFAK-OH [KFAK (6), KFAK KFAK KFAK KFAK KFAK KFAK]
- IC50 (Cr. Neoformans 32045): 5.8 µg/mL
- MIC (Cr. Neoformans 32045): 16 to 32 µg/mL
- IC50 (C. albicans 10231): 72 µg/mL
- MIC (C. albicans 10231): 80 to 125 µg/mL
- IC50 (P. aeruginosa ATCC 10145): 5.6 µg/mL
- IC50 ([1]; ATCC 33591): 38.7 µg/mL
- MIC ([1]; ATCC 33591): 125 to 250 µg/mL
- IC50 (E. coli ATCC 2592): 4 µg/mL
- MIC (E. coli ATCC 2592): 8 to 16 µg/mL
- HC50 at 24 h (Red blood cell toxicity): > 250 µg/mL
- % kill at 250 μg/ml (Red blood cells (RBC)): 7.3%
- % kill at 500 μg/ml (HeLa cell line): 30.5%
- TX50 (HeLa cell line): 457.3 µg/mL

Substance: KFAKKFAKKFAKKFAK [KFAK (4), KFAK KFAK KFAK KFAK]
- IC50 (Cr. Neoformans 32045): 5.3 µg/mL
- MIC (Cr. Neoformans 32045): 6.0 to 8.0 µg/mL
- IC50 (C. albicans 10231): 70 µg/mL
- MIC (C. albicans 10231): 90 to 125 µg/mL
- IC50 [1, 2]: >250 µg/mL
- MIC [1, 2]: >250 µg/mL
- IC50 (E. coli ATCC 2592): 46 µg/mL
- MIC (E. coli ATCC 2592): 62 to 125 µg/mL
- HC50 at 24 h (Red blood cell toxicity; [3]): > 250 µg/mL
- % kill at 250 μg/ml (Red blood cells (RBC); RBCs, 250 μg/ml): 0.1%
- % kill at 500 μg/ml (HeLa cell line): 76%
- TX50 (HeLa cell line): >500 µg/mL

Substance: KFAKKFAKKFAKKFAKKFAK [KFAK (5), KFAK KFAK KFAK KFAK KFAK]
- IC50 (Cr. Neoformans 32045): 5 µg/mL
- MIC (Cr. Neoformans 32045): 8 to 16 µg/mL
- IC50 (C. albicans 10231): 66 µg/mL
- MIC (C. albicans 10231): 90 to 125 µg/mL
- IC50 [1, 2]: >250 µg/mL
- MIC [1, 2]: >250 µg/mL
- IC50 (E. coli ATCC 2592): 6 µg/mL
- MIC (E. coli ATCC 2592): 16 to 32 µg/mL
- HC50 at 24 h (Red blood cell toxicity; [3]): > 250 µg/mL
- % kill at 250 μg/ml (Red blood cells (RBC); RBCs, 250 μg/ml): 4.1%
- % kill at 500 μg/ml (HeLa cell line): 89%
- TX50 (HeLa cell line): >500 µg/mL

Substance: KFAKKFAKKFAKKFAKKFAKKFAKKFAK [KFAK (7), KFAK KFAK KFAK KFAK KFAK KFAK KFAK]
- MIC (Cr. Neoformans 32045): 32 to 62 µg/mL
- IC50 (C. albicans 10231): 82 µg/mL
- MIC (C. albicans 10231): 100 to 125 µg/mL
- IC50 ([1]; ATCC 33591): 108.8 µg/mL
- MIC ([1]; ATCC 33591): >250 µg/mL
- IC50 (E. coli ATCC 2592): 8 µg/mL
- MIC (E. coli ATCC 2592): 32 to 62 µg/mL
- HC50 at 24 h (Red blood cell toxicity): > 250 µg/mL
- % kill at 250 μg/ml (Red blood cells (RBC)): 13.7%
- TX50 (Red blood cells (RBC)): >250 µg/mL
- % kill at 500 μg/ml (HeLa cell line): 13.0%
- TX50 (HeLa cell line): 204.1 µg/mL
